Measured values as given in US8796256B2 (Janssen Pharmaceutica NV, priority 2010, dated 2014).
Where two headings read alike, the source gives them in different places.

Legend:
[1] = target: T1, ERR1 (also known as ERR-α or ERR-1) (Homo sapiens, UniProt P11474); assay: TR-FRET assay (disruption of co-activator peptide binding to ERR1 LBD); assay type: biochemical; settings: 6 nM 6His-ERR1LBD, 6 nM GST-SRC-2 peptide; average of 3 independent experiments
T1 sequence (P11474 193-421 limits assumed): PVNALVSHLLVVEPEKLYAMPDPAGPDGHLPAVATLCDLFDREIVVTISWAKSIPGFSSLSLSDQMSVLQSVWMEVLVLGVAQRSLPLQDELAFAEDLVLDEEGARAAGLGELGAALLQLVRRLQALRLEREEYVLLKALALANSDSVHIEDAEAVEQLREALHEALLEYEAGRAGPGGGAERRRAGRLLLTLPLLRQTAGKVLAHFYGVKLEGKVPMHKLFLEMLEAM
Procedure, shortened: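 Homogeneous TR-FRET measuring displacement of GST-hSRC2 co-activator peptide (6 nM) from His-tagged ERR1 LBD (6 nM), detected with α-GST Eu cryptate (30 nM) and α-His-XL665 (7.5 nM). Buffer 25 mM Tris pH 8, 2.5 mM Hepes, 20 mM KCl, 1 mM DTT, 0.05 mg/mL delipidated BSA; equilibration 4-18 h at 25° C. Hyperbolic dose-response fit, mean of 3 experiments.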

Zucker fa/fa male rats = assay: Zucker fa/fa Rat Model Assay; assay type: in vivo; settings: po, 120 h, 10 mg/kg orally once a day for 4 days
From the text: Zucker fa/fa is a monogenic model of frank diabetes due to a mutation on the fa gene truncating the leptin receptor and preventing its interaction with its peptide hormone. This mutation results in a hyperphagic phenotype and the rodent develops obesity, hyperlipidemia, fasting hyperglycemia and insulin resistance. Zucker fa/fa male rats were received at four weeks of age and allowed to acclimate for one week. At five weeks of age the animals were single housed in cages in a temperature-controlled room with 12-hour light/dark cycle. The rats were allowed ad libitum access to water and food and throughout the study were maintained on a Purina 5008 diet. Animals were sorted based primarily on fed insulin levels and circulating triglycerides. Animals were dosed orally once a day (10 mg/kg) in the morning for 4 days. The vehicle used was either 20% HPβCD (Hydroxypropyl Beta Cyclodextrin) or 15% Vitamin E/30% PEG-400 (Polyethylene Glycol 400). Fed insulin and triglycerides were measured using blood collected from the tail vein at day 5. Serum plasma samples were prepared by centrifugation in EDTA (Ethylenediaminetetraacetic acid) containing tubes, transferred into 96 well plates and stored at −80° C.

[2] = blood from tail vein at day 5, read-out: % Change Fed Insulin Levels
[3] = blood from tail vein at day 5, read-out: % Change Fed Triglyceride Levels

| SMILES | EC50 [1] [nM] | change in vivo at 10 mg/kg (Zucker fa/fa male rats; [2]) [%] | change in vivo at 10 mg/kg (Zucker fa/fa male rats; [3]) [%] |
| --- | --- | --- | --- |
| O=C(O)CN1C(=O)S/C(=C\c2ccc3c(c2)c(Cl)nn3Cc2ccc(Cl)cc2C(F)(F)F)C1=O [Compound 287, [(5Z)-5-({1-[4-Chloro-2-(trifluoromethyl)benzyl]-3-chloro-1H-indazol-5-yl}methylidene)-2,4-dioxo-1,3-thiazolidin-3-yl]acetic acid] | 22 | -53 | -36 |
| COc1ccc(Cn2ncc3cc(/C=C4\SC(=O)N(C5CCC(C(=O)O)CC5)C4=O)ccc32)c(C(F)(F)F)c1 (stereo not drawn) [Compound 22, 4-[(5Z)-5-({1-[4-Methoxy-2-(trifluoromethyl)benzyl]-1H-indazol-5-yl}methylidene)-2,4-dioxo-1,3-thiazolidin-3-yl)cyclohexanecarboxylic acid] | 8 | -11 | 32 |
